Data: ChEMBL document CHEMBL1156451 (J Biol Chem, 2007)
≈ marks a conversion by molar mass, not a printed value. Calls of active or inactive are those of the source. The rule behind the calls is not given here. Where a SMILES comes first, the peptide text is derived from it.

How the values were obtained:
Pseudomonas aeruginosa = assay: Antibacterial activity against Pseudomonas aeruginosa CUN 4158-02 after 24 hrs in Mueller-Hinton broth medium; assay type: functional
HeLa [1] = assay: Cytotoxicity against human HeLa cells at 100 ug/ml after 24 hrs by MTT assay relative to control; assay type: functional
Escherichia coli [2] = assay: Antibacterial activity against Escherichia coli K12 ATCC 23716 in 10% Luria-Bertani medium/90% Hepes buffer at pH 7.0; assay type: functional
Brucella abortus [3] = assay: Antibacterial activity against Brucella abortus 9.49 (per-) after 48 hrs in Mueller-Hinton broth medium; assay type: functional
[4] = system: Bordetella bronchiseptica; assay: Antibacterial activity against Bordetella bronchiseptica CUN 11844-99 after 24 hrs in Mueller-Hinton broth medium; assay type: functional
Acinetobacter baumannii = assay: Antibacterial activity against Acinetobacter baumannii ATCC 19606 after 24 hrs in Mueller-Hinton broth medium; assay type: functional; conditions: ATCC 19606, 24 h
[5] = Toxicity in human erythrocytes assessed as hemolysis; assay type: cell-based; conditions: erythrocyte
Staphylococcus aureus = assay: Antibacterial activity against methicillin-resistant Staphylococcus aureus ATCC 43300 after 24 hrs in Mueller-Hinton broth medium; assay type: functional; conditions: ATCC 43300, 24 h
Brucella abortus [6] = assay: Antibacterial activity against Brucella abortus 9.19 (per-) after 24 hrs in Mueller-Hinton broth medium; assay type: functional
Escherichia coli [7] = assay: Antibacterial activity against Escherichia coli K12 ATCC 23716 after 24 hrs in Mueller-Hinton broth medium; assay type: functional; conditions: K12, 24 h
Escherichia coli [8] = assay: Antibacterial activity against Escherichia coli ATCC 25922 after 24 hrs in Mueller-Hinton broth medium; assay type: functional; conditions: ATCC 25922, 24 h
HeLa [9] = assay: Cytotoxicity against human HeLa cells at 100 ug/ml after 24 hrs by neutral red uptake assay relative to control; assay type: functional
[10] = Toxicity in human erythrocytes assessed as hemolysis at 100 ug/ml; assay type: cell-based, Erythrocyte; conditions: read-out: Activity
Escherichia coli [11] = assay: Effect on morphology in Escherichia coli K12 ATCC 23716 assessed as detachment of outer membrane from inner membrane at 4 uM after 30 mins by transmission electron microscopy; assay type: functional, organism-based
Escherichia coli [12] = assay: Effect on morphology in Escherichia coli K12 ATCC 23716 assessed as formation of high electrodense clusters at 20 uM after 30 mins by transmission electron microscopy; assay type: functional, organism-based

Row | Compound | MBC (Pseudomonas aeruginosa) [µg/mL] | MIC (Pseudomonas aeruginosa) [µg/mL] | Activity (HeLa [1]) | MBC (Escherichia coli [2]) [µg/mL] | MIC (Escherichia coli [2]) [µg/mL] | MIC (Brucella abortus [3]) [µg/mL] | MBC [4] [µg/mL] | MIC [4] [µg/mL] | MBC (Acinetobacter baumannii) [µg/mL] | MIC (Acinetobacter baumannii) [µg/mL] | Activity [5] | MBC (Staphylococcus aureus) [µg/mL] | MIC (Staphylococcus aureus) [µg/mL] | MBC (Brucella abortus [6]) [µg/mL] | MBC (Escherichia coli [7]) [µg/mL] | MIC (Escherichia coli [7]) [µg/mL] | MBC (Escherichia coli [8]) [µg/mL] | MIC (Escherichia coli [8]) [µg/mL] | Activity (HeLa [9]) [%] | further results
1 | CC[C@H](C)[C@H](NC(=O)[C@H](CCCCN)NC(=O)[C@H](CCCCN)NC(=O)[C@H](CO)NC(=O)[C@@H](NC(=O)CNC(=O)[C@H](CCCNC(=N)N)NC(=O)[C@H](CC(C)C)NC(=O)[C@@H](NC(=O)[C@@H](N)CCCCN)[C@@H](C)CC)C(C)C)C(=O)N[C@@H](CCSC)C(=O)N[C@@H](CCCNC(=N)N)C(=O)N[C@H](C(=O)N[C@@H](Cc1ccccc1)C(=O)N[C@@H](CC(C)C)C(=O)N[C@@H](CCCNC(=N)N)C(=O)N[C@@H](CCCNC(=N)N)C(=O)N[C@H](C(=O)N[C@@H](CC(C)C)C(=O)N[C@H](C(=O)NCC(=O)N[C@@H](CCCCN)C(=O)N[C@@H](CCCCN)C(N)=O)[C@@H](C)O)[C@@H](C)CC)[C@@H](C)O (H-KILRGVSKKIMRTFLRRILTGKK-NH2) | 4 (≈ 1.46 µM) | 4 (≈ 1.46 µM) | inactive | 25 (≈ 9.12 µM) | 19 (≈ 6.93 µM) | 4 (≈ 1.46 µM) | 2 (≈ 0.729 µM) | 2 (≈ 0.729 µM) | 4 (≈ 1.46 µM) | 4 (≈ 1.46 µM) | Toxic | 256 (≈ 93.3 µM) | 64 (≈ 23.3 µM) | 4 (≈ 1.46 µM) | 8 (≈ 2.92 µM) | 8 (≈ 2.92 µM) | 4 (≈ 1.46 µM) | 4 (≈ 1.46 µM) | – | –
2 | CC[C@H](C)[C@H](NC(=O)[C@H](CCCNC(=N)N)NC(=O)[C@H](CCCNC(=N)N)NC(=O)[C@H](CC(C)C)NC(=O)[C@H](Cc1ccccc1)NC(=O)[C@@H](NC(=O)[C@H](CCCNC(=N)N)NC(=O)[C@H](CCSC)NC(=O)[C@@H](NC(=O)[C@H](CCCCN)NC(=O)[C@H](CCCCN)NC(=O)[C@H](CO)NC(=O)[C@@H](NC(=O)CNC(=O)[C@H](CCCNC(=N)N)NC(=O)[C@H](CC(C)C)NC(=O)[C@@H](NC(=O)[C@@H](N)CCCCN)[C@@H](C)CC)C(C)C)[C@@H](C)CC)[C@@H](C)O)C(=O)N[C@@H](CO)C(=O)N[C@@H](CCCCN)C(=O)N[C@@H](CC(=O)O)C(=O)N[C@H](C(=O)N[C@@H](CC(C)C)C(=O)N[C@H](C(=O)NCC(=O)N[C@@H](CCCCN)C(=O)N[C@@H](CCCCN)C(N)=O)[C@@H](C)O)[C@@H](C)CC (H-KILRGVSKKIMRTFLRRISKDILTGKK-NH2) | 4 (≈ 1.26 µM) | 4 (≈ 1.26 µM) | 38.4% | 16 (≈ 5.02 µM) | 8 (≈ 2.51 µM) | 2 (≈ 0.628 µM) | 4 (≈ 1.26 µM) | 4 (≈ 1.26 µM) | 2 (≈ 0.628 µM) | 2 (≈ 0.628 µM) | Toxic | 128 (≈ 40.2 µM) | 128 (≈ 40.2 µM) | 4 (≈ 1.26 µM) | 2 (≈ 0.628 µM) | 2 (≈ 0.628 µM) | 4 (≈ 1.26 µM) | 4 (≈ 1.26 µM) | 24.8 | –
3 | CC[C@H](C)[C@H](NC(=O)[C@H](CCCCN)NC(=O)[C@H](CCCCN)NC(=O)[C@H](CO)NC(=O)[C@@H](NC(=O)[C@@H](N)CCCCN)[C@@H](C)CC)C(=O)N[C@@H](CCSC)C(=O)N[C@@H](CCCNC(=N)N)C(=O)N[C@H](C(=O)N[C@@H](Cc1ccccc1)C(=O)N[C@@H](CC(C)C)C(=O)N[C@@H](CCCNC(=N)N)C(=O)N[C@@H](CCCNC(=N)N)C(N)=O)[C@@H](C)O (H-KISKKIMRTFLRR-NH2) | 256 (≈ 153 µM) | 256 (≈ 153 µM) | 6.4% | 12.5 (≈ 7.46 µM) | 12.5 (≈ 7.46 µM) | 16 (≈ 9.55 µM) | 32 (≈ 19.1 µM) | 16 (≈ 9.55 µM) | 256 (≈ 153 µM) | 256 (≈ 153 µM) | – | > 256 | > 256 | > 256 | 16 (≈ 9.55 µM) | 16 (≈ 9.55 µM) | 128 (≈ 76.4 µM) | 64 (≈ 38.2 µM) | 18.5 | hemolysis at 100 ug/ml [10]: < 5%
4 | CC[C@H](C)[C@H](NC(=O)[C@H](CCCNC(=N)N)NC(=O)[C@H](CCCNC(=N)N)NC(=O)[C@H](CC(C)C)NC(=O)[C@H](Cc1ccccc1)NC(=O)[C@@H](NC(=O)[C@H](CCCNC(=N)N)NC(=O)[C@H](CCSC)NC(=O)[C@@H](NC(=O)[C@H](CCCCN)NC(=O)[C@H](CCCCN)NC(=O)[C@H](CS)NC(=O)[C@@H](NC(=O)CNC(=O)[C@H](CCCNC(=N)N)NC(=O)[C@H](CC(C)C)NC(=O)[C@@H](NC(=O)[C@@H](N)CCCCN)[C@@H](C)CC)C(C)C)[C@@H](C)CC)[C@@H](C)O)C(=O)N[C@@H](CO)C(=O)N[C@@H](CCCCN)C(=O)N[C@@H](CC(=O)O)C(=O)N[C@H](C(=O)N[C@@H](CC(C)C)C(=O)N[C@H](C(=O)NCC(=O)N[C@@H](CCCCN)C(=O)N[C@@H](CCCCN)C(=O)O)[C@@H](C)O)[C@@H](C)CC (H-KILRGVCKKIMRTFLRRISKDILTGKK-OH) | 32 (≈ 9.99 µM) | 32 (≈ 9.99 µM) | 28.7% | 32 (≈ 9.99 µM) | 16 (≈ 5 µM) | 32 (≈ 9.99 µM) | 4 (≈ 1.25 µM) | 4 (≈ 1.25 µM) | 2 (≈ 0.624 µM) | 2 (≈ 0.624 µM) | Toxic | 256 (≈ 79.9 µM) | 256 (≈ 79.9 µM) | 32 (≈ 9.99 µM) | 0.25 (≈ 0.078 µM) | 0.25 (≈ 0.078 µM) | 16 (≈ 5 µM) | 16 (≈ 5 µM) | 31.6 | Activity (Escherichia coli [11]): Active; Activity (Escherichia coli [12]): Active
